Measured values published in patent US12391646B2, “Using adiponectin receptor agonists to treat inflammation and bone diseases in diabetes” (Trustees of Tufts College, priority 2020, dated 2025).

Test system: DIO mice with experimental periodontitis
Assay: Experimental periodontitis in DIO mice
Assay type: in vivo
Conditions: for numbers of osteoclasts on alveolar bone (TRAP stain): compared to vehicle-treated DIO mice; for IL-6 and CCL-2 gene expression in periodontal epithelium: compared to vehicle-treated group; for bodyweight / decrease in fasting blood glucose level: two weeks oral gavage, AdipoRon 50 mg/kg, AdipoAI 25 mg/kg, vs vehicle; for average alveolar bone loss at 6 sites (CEJ-ABC distance): two weeks, vehicle 372.3±27.3 μm
Description: FIG. 19 AdipoRon and AdipoAI attenuate experimental periodontitis in diet-induced obesity (DIO). (A) Bodyweight of vehicle, AdipoRon and AdipoAI-treated DIO mice with experimental periodontitis. (B) Fasting blood glucose in DIO mice with experimental periodontitis treated with vehicle, AdipoRon and AdipoAI. (C) A representative 3-dimensional model of alveolar bone in DIO mice with experimental periodontitis. […] The distance from ABC to CEJ in four groups is shown in (D) (n≥7). (E) Representative TRAP-stained alveolar bone in DIO mice with experimental periodontitis. Black arrow, osteoclast (scale bar=200 μm). The number of osteoclasts attached to the alveolar bone surface was calculated (F). (G) Relative expression of IL-6 and CCL2 genes in gingival tissue from DIO mice with experimental periodontitis was analyzed using real-time PCR. The animals were treated AdipoRon and AdipoAI or vehicle alone (n≥5).
DIO (C57BL/6J background, Jax #380050) were purchased from the Jackson Laboratory (Bar Harbor, ME, http://www.jax.org/). After acclimatization, animals were fed a high-fat diet (containing 60% kcal from fat, Jackson Laboratory) from 6 weeks of age onwards. Experimental periodontitis was induced in 20-week-old mice by 5-0 silk suture as described previously 26. Briefly, animals were anesthetized using ketamine/xylazine and buprenorphine and the sutures were placed around the maxillary second molar and tied on the palatal side for 2 weeks. The ethical approval of this study was provided by the IACUC of UCSD. The care and use of laboratory animals and Animal Research was performed in accordance with NIH guidelines.
AdipoRon (50 mg/kg body weight)^23, 24 and the AdipoAI (25 mg/kg body weight)^25 were administered by oral gavage concurrently with establishment of experimental periodontitis for 2 weeks.
Gingival tissues from the palatal side were sampled and immediately stored in liquid nitrogen until further analysis. The skulls were scanned by the Bruker Skyscan micro-CT system (Bruker, Kontich, Belgium). Alveolar bone loss, defined as the distance between the cementoenamel junction (CEJ) to the alveolar bone crest (ABC), was measured at six sites (mesio-buccal, mid-buccal, disto-buccal, mesio-palatal, mid-palatal, and disto-palatal) using Ctan software (http://bruker-microct.com/products/downloads.htm) as previously reported^26. Periodontal hard tissue sections were stained with Acid Phosphatase, Leukocyte (TRAP) Kit (Sigma, St. Louis, MO, USA) according to the manufacturer's instructions.
Total RNA was isolated from cell cultures and gingival soft tissues using TriZol reagent (Life Technologies, Carlsbad, CA, USA) according to the manufacturer's instructions^24. Reverse transcription was performed using the PrimeScript RT Master Mix (Takara Bio, Otsu, Japan) and real-time-qPCR analyses were performed using SYBR-Green Real-Time PCR Master Mix (Takara Bio, Otsu, Japan) as described earlier^27.

SMILES	numbers of osteoclasts on alveolar bone (TRAP stain)	IL-6 and CCL-2 gene expression in periodontal epithelium	bodyweight	decrease in fasting blood glucose level	average alveolar bone loss at 6 sites (CEJ-ABC distance)
O=C(COc1ccc(C(=O)c2ccccc2)cc1)NC1CCN(Cc2ccccc2)CC1 [AdipoRon, reference compound]	significantly decreased numbers of osteoclasts	significantly attenuated the IL-6 and CCL-2 gene expression	decreased significantly	73.3%	344.5±22.2 μm
COc1ccc(CN2CCC(NC(=O)COc3ccc(C(=O)c4ccc(Cl)cc4)cc3)CC2)cc1 [Compound 3]	significantly decreased numbers of osteoclasts	significantly attenuated the IL-6 and CCL-2 gene expression	decreased significantly	75.3%	328.5±19.9 μm
